Experimental data reported in ChEMBL document CHEMBL4765323, “Design, synthesis, and biological evaluation of novel miconazole analogues containing selenium as potent antifungal agents” (Eur J Med Chem, 2020).
Values after ≈ are worked out from the molar mass of the structure shown.

Columns and labels:
Candida albicans [1] = test: Antifungal activity against Candida albicans CPCC400616 measured after 24 hrs by micro-broth dilution assay; assay type: functional
Candida albicans [2] = test: Antifungal activity against Candida albicans ATCC SC5314 measured after 24 hrs by micro-broth dilution assay; assay type: functional
[Candida] zeylanoides = Antifungal activity against Candida zeylanoides CMGCC2.3739 measured after 24 hrs by micro-broth dilution assay; assay type: functional; details: Dujonia zeylanoides
Cryptococcus neoformans = test: Antifungal activity against Cryptococcus neoformans CGMCC2.3161 measured after 72 hrs by micro-broth dilution assay; assay type: functional
Pichia kudriavzevii = test: Antifungal activity against Candida krusei AS 2.1045 measured after 24 hrs by micro-broth dilution assay; assay type: functional
Nakaseomyces glabratus = test: Antifungal activity against clinical isolate Candida glabrata measured after 24 hrs by micro-broth dilution assay; assay type: functional
Candida parapsilosis = test: Antifungal activity against Candida parapsilosis ATCC 22019 measured after 24 hrs by micro-broth dilution assay; assay type: functional; details: Lodderomyces parapsilosis
Aspergillus fumigatus = test: Antifungal activity against Aspergillus fumigatus CGMCC 3.7795 measured after 72 hrs by micro-broth dilution assay; assay type: functional
Candida albicans [3] = test: Antifungal activity against fluconazole-resistant Candida albicans CaR measured after 24 hrs by micro-broth dilution assay; assay type: functional
Candida albicans [4] = test: Antifungal activity against fluconazole-resistant Candida albicans 17 measured after 24 hrs by micro-broth dilution assay; assay type: functional
Candida albicans [5] = test: Antifungal activity against fluconazole-resistant Candida albicans 632 measured after 24 hrs by micro-broth dilution assay; assay type: functional
Candida albicans [6] = test: Antifungal activity against Candida albicans 901 measured after 24 hrs by micro-broth dilution assay; assay type: functional
Candida albicans [7] = test: Antifungal activity against fluconazole-resistant Candida albicans strain 904 measured after 24 hrs by micro-broth dilution assay; assay type: functional
Candida albicans [8] = test: Fungicidal activity against Candida albicans CPCC400616 measured after 48 hrs; assay type: functional
[9] = Ratio of MFC for fungicidal activity against Candida albicans CPCC400616 to MIC for Antifungal activity against Candida albicans CPCC400616; assay type: functional; details: time 24 hrs
[10] = Ratio of hemolysis activity in rabbit RBC to MIC for Candida albicans; assay type: toxicity; details: rabbit red blood cells (RBC)

SMILES	MIC (Candida albicans [1]) [µg/mL]	MIC (Candida albicans [2]) [µg/mL]	MIC ([Candida] zeylanoides) [µg/mL]	MIC (Cryptococcus neoformans) [µg/mL]	MIC (Pichia kudriavzevii) [µg/mL]	MIC (Nakaseomyces glabratus) [µg/mL]	MIC (Candida parapsilosis) [µg/mL]	MIC (Aspergillus fumigatus) [µg/mL]	MIC (Candida albicans [3]) [µg/mL]	MIC (Candida albicans [4]) [µg/mL]	MIC (Candida albicans [5]) [µg/mL]	MIC (Candida albicans [6]) [µg/mL]	MIC (Candida albicans [7]) [µg/mL]	MIC (Candida albicans [8]) [µg/mL]	MFC/MIC ratio [9]	selectivity ratio [10]
Fc1ccc(C(Cn2ccnc2)[Se]Cc2ccc(Cl)cc2Cl)c(F)c1 (stereo not given)	0.03 (≈ 0.0672 µM)	0.13 (≈ 0.291 µM)	0.5 (≈ 1.12 µM)	0.25 (≈ 0.56 µM)	0.06 (≈ 0.134 µM)	1 (≈ 2.24 µM)	0.03 (≈ 0.0672 µM)	0.5 (≈ 1.12 µM)	16 (≈ 35.9 µM)	1 (≈ 2.24 µM)	2 (≈ 4.48 µM)	0.5 (≈ 1.12 µM)	2 (≈ 4.48 µM)	0.125 (≈ 0.28 µM)	4	64
Fc1cccc(C[Se]C(Cn2ccnc2)c2ccc(F)cc2F)c1 (stereo not given)	0.03 (≈ 0.0759 µM)	0.03 (≈ 0.0759 µM)	1 (≈ 2.53 µM)	0.5 (≈ 1.26 µM)	0.13 (≈ 0.329 µM)	0.5 (≈ 1.26 µM)	0.25 (≈ 0.632 µM)	2 (≈ 5.06 µM)	4 (≈ 10.1 µM)	0.06 (≈ 0.152 µM)	8 (≈ 20.2 µM)	8 (≈ 20.2 µM)	1 (≈ 2.53 µM)	> 128	–	–
